According to article PMC9866191, “Novel 9-Benzylaminoacridine Derivatives as Dual Inhibitors of Phosphodiesterase 5 and Topoisomerase II for the Treatment of Colon Cancer” (Molecules, 2023):

How the values were obtained:
[1] = target: T1, PDE5A (Homo sapiens, UniProt O76074); experiment: Phosphodiesterase 5 HTRF cGMP assay; assay type: biochemical; details: for IC50: means ± S.D. (n = 4), read-out: PDE5 IC50; for inhibition at 10 µM: read-out: PDE5 % Inhibition at 10 μM
T1 construct: purchased BPS Bioscience, San Diego, CA, USA
Description: All the synthesized acridine derivatives were tested for their in vitro ability to inhibit PDE5A at a screening dose of 10 µM.
The enzyme activities of phosphodiesterase 5 (PDE5) were measured using an HTRF cGMP assay kit (Cisbio, Codolet, France). […] Afterward, the HTRF reagent (cGMP-d2 and anti-cGMP-cryptate) was added for 1 h at 25 °C, and PDE activity was assayed on an HTRF reader (Tecan Infinite F200 Pro).

[2] = test system: CCRF-CEM; experiment: NCI-60 one-dose screen; assay type: cell-based; details: Homo sapiens, Leukemia panel, single dose 10^−5 M, read-out: Growth inhibition %
[3] = test system: ACHN; experiment: NCI-60 one-dose screen; assay type: cell-based; details: Homo sapiens, Renal Cancer panel, single dose 10^−5 M, read-out: Growth inhibition %
Description: (§1) The newly synthesized compounds were screened for their in vitro anticancer activity at the Developmental Therapeutic Program (DTP) of the National Cancer Institute (NCI). The screening involved a panel of 60 human tumor cell lines consisting of 9 tissue types to screen for potential anti-cancer agents. The primary screening of submitted compounds was performed by testing a single dose (10^−5 M) in the full NCI-60 panel. The detailed % inhibition by the tested compounds against the 60 cell lines is shown in Tables S1–S3 in the Supporting Information.

[4] = test system: CAKI-1; experiment: NCI-60 one-dose screen; assay type: cell-based; details: Homo sapiens; CAKI-1, Renal Cancer panel; single dose 10^−5 M; read-out: Growth inhibition %
Description: as §1

[5] = test system: COLO 205; experiment: NCI-60 one-dose screen; assay type: cell-based; details: Homo sapiens; COLO 205, Colon Cancer panel; single dose 10^−5 M; read-out: Growth inhibition %
Description: as §1

[6] = test system: HCC-2998; experiment: NCI-60 one-dose screen; assay type: cell-based; details: Homo sapiens; HCC-2998, Colon Cancer panel; single dose 10^−5 M; read-out: Growth inhibition %
Description: as §1

[7] = test system: HCT-15; experiment: NCI-60 one-dose screen; assay type: cell-based; details: Homo sapiens; HCT-15, Colon Cancer panel; single dose 10^−5 M; read-out: Growth inhibition %
Description: as §1

[8] = test system: HOP-92; experiment: NCI-60 one-dose screen; assay type: cell-based; details: Homo sapiens; HOP-92, Non-small cell lung panel; single dose 10^−5 M; read-out: Growth inhibition %
Description: as §1

[9] = test system: K-562; experiment: NCI-60 one-dose screen; assay type: cell-based; details: Homo sapiens, K562; K-562, Leukemia panel; single dose 10^−5 M; read-out: Growth inhibition %
Description: as §1

[10] = test system: KM12; experiment: NCI-60 one-dose screen; assay type: cell-based; details: Homo sapiens; KM12, Colon Cancer panel; single dose 10^−5 M; read-out: Growth inhibition %
Description: as §1

[11] = test system: M14; experiment: NCI-60 one-dose screen; assay type: cell-based; details: Homo sapiens; M14, Melanoma panel; single dose 10^−5 M; read-out: Growth inhibition %
Description: as §1

[12] = test system: MDA-MB-435; experiment: NCI-60 one-dose screen; assay type: cell-based; details: Homo sapiens; MDA-MB-435, Melanoma panel; single dose 10^−5 M; read-out: Growth inhibition %
Description: as §1

[13] = test system: NCI-H522; experiment: NCI-60 one-dose screen; assay type: cell-based; details: Homo sapiens; NCI-H522, Non-small cell lung panel; single dose 10^−5 M; read-out: Growth inhibition %
Description: as §1

[14] = test system: NCI/ADR-RES; experiment: NCI-60 one-dose screen; assay type: cell-based; details: Homo sapiens, Ovarian Cancer panel, single dose 10^−5 M, read-out: Growth inhibition %
Description: as §1

[15] = test system: OVCAR-3; experiment: NCI-60 one-dose screen; assay type: cell-based; details: Homo sapiens; OVCAR-3, Ovarian Cancer panel; single dose 10^−5 M; read-out: Growth inhibition %
Description: as §1

[16] = test system: SF-295; experiment: NCI-60 one-dose screen; assay type: cell-based; details: Homo sapiens; SF-295, CNS Cancer panel; single dose 10^−5 M; read-out: Growth inhibition %
Description: as §1

[17] = test system: SK-MEL-28; experiment: NCI-60 one-dose screen; assay type: cell-based; details: Homo sapiens; SK-MEL-28, Melanoma panel; single dose 10^−5 M; read-out: Growth inhibition %
Description: as §1

[18] = test system: SK-MEL-2; experiment: NCI-60 one-dose screen; assay type: cell-based; details: Homo sapiens; SK-MEL-2, Melanoma panel; single dose 10^−5 M; read-out: Growth inhibition %
Description: as §1

[19] = test system: SK-MEL-5; experiment: NCI-60 one-dose screen; assay type: cell-based; details: Homo sapiens; SK-MEL-5, Melanoma panel; single dose 10^−5 M; read-out: Growth inhibition %
Description: as §1

[20] = test system: SK-OV-3; experiment: NCI-60 one-dose screen; assay type: cell-based; details: Homo sapiens; SK-OV-3, Ovarian Cancer panel; single dose 10^−5 M; read-out: Growth inhibition %
Description: as §1

[21] = test system: SN12C; experiment: NCI-60 one-dose screen; assay type: cell-based; details: Homo sapiens, Renal Cancer panel, single dose 10^−5 M, read-out: Growth inhibition %
Description: as §1

[22] = test system: SNB-75; experiment: NCI-60 one-dose screen; assay type: cell-based; details: Homo sapiens; SNB-75, CNS Cancer panel; single dose 10^−5 M; read-out: Growth inhibition %
Description: as §1

[23] = test system: SR; experiment: NCI-60 one-dose screen; assay type: cell-based; details: Homo sapiens, Leukemia panel, single dose 10^−5 M, read-out: Growth inhibition %
Description: as §1

[24] = test system: SW-620; experiment: NCI-60 one-dose screen; assay type: cell-based; details: Homo sapiens; SW-620, Colon Cancer panel; single dose 10^−5 M; read-out: Growth inhibition %
Description: as §1

[25] = test system: T-47D; experiment: NCI-60 one-dose screen; assay type: cell-based; details: Homo sapiens, T47D, Breast Cancer panel, single dose 10^−5 M, read-out: Growth inhibition %
Description: as §1

[26] = test system: U251; experiment: NCI-60 one-dose screen; assay type: cell-based; details: Homo sapiens, U-251; U251, CNS Cancer panel; single dose 10^−5 M; read-out: Growth inhibition %
Description: as §1

[27] = test system: UACC-257; experiment: NCI-60 one-dose screen; assay type: cell-based; details: Homo sapiens; UACC-257, Melanoma panel; single dose 10^−5 M; read-out: Growth inhibition %
Description: as §1

[28] = test system: SF-268; experiment: NCI-60 one-dose screen; assay type: cell-based; details: Homo sapiens; SF-268, CNS Cancer panel; single dose 10^−5 M; read-out: Growth inhibition %
[29] = test system: LOX IMVI; experiment: NCI-60 one-dose screen; assay type: cell-based; details: Homo sapiens, Melanoma panel, single dose 10^−5 M, read-out: Growth inhibition %
[30] = test system: IGROV1; experiment: NCI-60 one-dose screen; assay type: cell-based; details: Homo sapiens, IGROV-1; IGROV1, Ovarian Cancer panel; single dose 10^−5 M; read-out: Growth inhibition %

Structure (SMILES) | IC50 [1] | inhibition at 10 µM [1] | inhibition at 10 µM [2] | inhibition at 10 µM [3] | inhibition at 10 µM [4] | inhibition at 10 µM [5] | inhibition at 10 µM [6] | inhibition at 10 µM [7] | inhibition at 10 µM [8] | inhibition at 10 µM [9] | inhibition at 10 µM [10] | inhibition at 10 µM [11] | inhibition at 10 µM [12] | inhibition at 10 µM [13] | inhibition at 10 µM [14] | inhibition at 10 µM [15] | inhibition at 10 µM [16] | inhibition at 10 µM [17] | inhibition at 10 µM [18] | inhibition at 10 µM [19] | also measured
Fc1cccc(CNc2c3ccccc3nc3ccccc23)c1 [Compound 9, Acridin-9-yl-(3-fluorobenzyl)-amine] | 7.49 ± 2.2 µM | 55.9 ± 5.78% | 53.7% | 82.9% | 73% | 82.7% | 70.1% | 77.1% | 104% | 84.3% | 51.4% | 61.2% | 51.1% | 62.2% | 69.9% | 33% | 74.8% | 21.5% | 18.6% | 39.5% | inhibition at 10 µM [20]: 48.9%; inhibition at 10 µM [21]: 67.2%; inhibition at 10 µM [22]: 37%; inhibition at 10 µM [23]: 80.9%; inhibition at 10 µM [24]: 78%; inhibition at 10 µM [25]: 57.3%; inhibition at 10 µM [26]: 64.8%; inhibition at 10 µM [27]: 41.9%; inhibition at 10 µM [28]: 37.9%; inhibition at 10 µM [29]: 87.7%; inhibition at 10 µM [30]: 74.4%
Fc1ccc(CNc2c3ccccc3nc3ccccc23)cc1 [Compound 10, Acridin-9-yl-(4-fluorobenzyl)-amine] | > 10 µM | 47 ± 7.06% | 74% | 87.5% | 74.5% | 92.5% | 81.7% | 82.4% | 82.8% | 95.2% | 71.7% | 65.7% | 65.2% | 47.6% | 70.3% | 61.3% | 72.4% | 31.8% | 56.2% | 57.5% | inhibition at 10 µM [20]: 60%; inhibition at 10 µM [21]: 74.3%; inhibition at 10 µM [22]: 57.9%; inhibition at 10 µM [23]: 93.4%; inhibition at 10 µM [24]: 77.2%; inhibition at 10 µM [25]: 68.9%; inhibition at 10 µM [26]: 74.1%; inhibition at 10 µM [27]: 64%; inhibition at 10 µM [28]: 46.8%; inhibition at 10 µM [29]: 90.6%; inhibition at 10 µM [30]: 78.1%
Clc1ccc(CNc2c3ccccc3nc3ccccc23)cc1 [Compound 13, Acridin-9-yl-(4-chlorobenzyl)-amine] | > 10 µM | 45.3 ± 3.99% | 69.8% | 77.2% | 58.6% | 91.4% | 110% | 76.7% | 74.5% | 95.7% | 64.4% | 46.7% | 39.3% | 33.5% | 63.4% | 48.9% | 40.4% | 19.7% | 27.6% | 38.8% | inhibition at 10 µM [20]: 40%; inhibition at 10 µM [21]: 60.9%; inhibition at 10 µM [22]: 31.6%; inhibition at 10 µM [23]: 97.7%; inhibition at 10 µM [24]: 69%; inhibition at 10 µM [25]: 56.6%; inhibition at 10 µM [26]: 53.8%; inhibition at 10 µM [27]: 23.9%; inhibition at 10 µM [28]: 32.1%; inhibition at 10 µM [29]: 77%; inhibition at 10 µM [30]: 68.3%
COc1cccc(CNc2c3ccccc3nc3ccccc23)c1OC [Compound 16, Acridin-9-yl-(2,3-dimethoxybenzyl)-amine] | > 10 µM | 36.7 ± 8.14% | 60.5% | 78.9% | 66.3% | 78.5% | 61.7% | 80.2% | 102% | 84.5% | 47.6% | 65.5% | 53.7% | 59.9% | 66.8% | 34.9% | 67% | 33.9% | 20.8% | 44.2% | inhibition at 10 µM [20]: 34%; inhibition at 10 µM [21]: 69.1%; inhibition at 10 µM [22]: 32%; inhibition at 10 µM [23]: 82.5%; inhibition at 10 µM [24]: 74.6%; inhibition at 10 µM [25]: 52.5%; inhibition at 10 µM [26]: 65.5%; inhibition at 10 µM [27]: 45.2%; inhibition at 10 µM [28]: 38.3%; inhibition at 10 µM [29]: 87%; inhibition at 10 µM [30]: 76.8%
COc1ccc(CNc2c3ccccc3nc3ccccc23)c(OC)c1 [Compound 17, Acridin-9-yl-(2,4-dimethoxybenzyl)-amine] | 6.77 ± 1.31 µM | 60.2 ± 5.89% | 44.6% | 74.2% | 63.8% | 75.4% | 64.4% | 74% | 114% | 86.8% | 45.7% | 56.2% | 61.3% | 59.4% | 64.4% | 30.8% | 63.7% | 30.7% | 5.98% | 29.6% | inhibition at 10 µM [20]: 36.7%; inhibition at 10 µM [21]: 69%; inhibition at 10 µM [22]: 35.5%; inhibition at 10 µM [23]: 81.9%; inhibition at 10 µM [24]: 79.3%; inhibition at 10 µM [25]: 47.1%; inhibition at 10 µM [26]: 58.2%; inhibition at 10 µM [27]: 25.4%; inhibition at 10 µM [28]: 34.3%; inhibition at 10 µM [29]: 82.3%; inhibition at 10 µM [30]: 77.5%
